Data taken from US11981658B2, “Substituted aminopyridine compounds as EGFR inhibitors” (YUHAN CORPORATION, priority 2021, dated 2024).
Like-named read-outs stand apart in the source and are kept apart here.

Legend:
EGFR Del19/T790M/C797S = EGFR Del19/T790M/C797S (Homo sapiens, UniProt P00533, C797S/DEL746-750/T790M); assay: Biochemical EGFR kinase inhibition assay (Lance Ultra TR-FRET), triple mutant del19/T790M/C797S
Procedure, shortened: (§1)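 In this biochemical assay, phosphorylation after a one-hour room-temperature reaction was detected with europium-labelled anti-phosphopeptide antibody at 2 nM final concentration.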

EGFR L858R/C797S = EGFR L858R/C797S (Homo sapiens, UniProt P00533, C797S/L858R); assay: Biochemical EGFR kinase inhibition assay (Lance Ultra TR-FRET), double mutant L858R/C797S
Procedure, shortened: as §1

EGFR Del19/C797S = EGFR Del19/C797S (Homo sapiens, UniProt P00533, C797S/DEL746-750); assay: Biochemical EGFR kinase inhibition assay (Lance Ultra TR-FRET), double mutant del19/C797S
Procedure, shortened: as §1

EGFR L858R/T790M/C797S = EGFR L858R/T790M/C797S (Homo sapiens, UniProt P00533, C797S/L858R/T790M); assay: Biochemical EGFR kinase inhibition assay (Lance Ultra TR-FRET), triple mutant L858R/T790M/C797S
Procedure, shortened: as §1

EGFR wildtype (WT) = EGFR wildtype (WT) (Homo sapiens, UniProt P00533); assay: Biochemical EGFR kinase inhibition assay (Lance Ultra TR-FRET), wildtype
Procedure, shortened: as §1

[1] = IC50 Del19/T790M/C797S (nM), 100 μM ATP
[2] = IC50 L858R/C797S (nM), 100 μM ATP
[3] = IC50 Del19/C797S (nM), 100 μM ATP
[4] = IC50 L858R/T790M/C797S (nM), 100 μM ATP
[5] = Km ATP, read-out: IC50 Del19/T790M/C797S (nM) Km ATP
[6] = Km ATP, read-out: IC50 L858R/C797S (nM) Km ATP
[7] = Km ATP, read-out: IC50 Del19/C797S (nM) Km ATP
[8] = Km ATP, read-out: IC50 L858R/T790M/C797S (nM) Km ATP
[9] = Km ATP, read-out: IC50 WT (nM) Km ATP

Chain of EGFR Del19/C797S (P00533 with tags, fused parts or gaps DEL746-750/C797S): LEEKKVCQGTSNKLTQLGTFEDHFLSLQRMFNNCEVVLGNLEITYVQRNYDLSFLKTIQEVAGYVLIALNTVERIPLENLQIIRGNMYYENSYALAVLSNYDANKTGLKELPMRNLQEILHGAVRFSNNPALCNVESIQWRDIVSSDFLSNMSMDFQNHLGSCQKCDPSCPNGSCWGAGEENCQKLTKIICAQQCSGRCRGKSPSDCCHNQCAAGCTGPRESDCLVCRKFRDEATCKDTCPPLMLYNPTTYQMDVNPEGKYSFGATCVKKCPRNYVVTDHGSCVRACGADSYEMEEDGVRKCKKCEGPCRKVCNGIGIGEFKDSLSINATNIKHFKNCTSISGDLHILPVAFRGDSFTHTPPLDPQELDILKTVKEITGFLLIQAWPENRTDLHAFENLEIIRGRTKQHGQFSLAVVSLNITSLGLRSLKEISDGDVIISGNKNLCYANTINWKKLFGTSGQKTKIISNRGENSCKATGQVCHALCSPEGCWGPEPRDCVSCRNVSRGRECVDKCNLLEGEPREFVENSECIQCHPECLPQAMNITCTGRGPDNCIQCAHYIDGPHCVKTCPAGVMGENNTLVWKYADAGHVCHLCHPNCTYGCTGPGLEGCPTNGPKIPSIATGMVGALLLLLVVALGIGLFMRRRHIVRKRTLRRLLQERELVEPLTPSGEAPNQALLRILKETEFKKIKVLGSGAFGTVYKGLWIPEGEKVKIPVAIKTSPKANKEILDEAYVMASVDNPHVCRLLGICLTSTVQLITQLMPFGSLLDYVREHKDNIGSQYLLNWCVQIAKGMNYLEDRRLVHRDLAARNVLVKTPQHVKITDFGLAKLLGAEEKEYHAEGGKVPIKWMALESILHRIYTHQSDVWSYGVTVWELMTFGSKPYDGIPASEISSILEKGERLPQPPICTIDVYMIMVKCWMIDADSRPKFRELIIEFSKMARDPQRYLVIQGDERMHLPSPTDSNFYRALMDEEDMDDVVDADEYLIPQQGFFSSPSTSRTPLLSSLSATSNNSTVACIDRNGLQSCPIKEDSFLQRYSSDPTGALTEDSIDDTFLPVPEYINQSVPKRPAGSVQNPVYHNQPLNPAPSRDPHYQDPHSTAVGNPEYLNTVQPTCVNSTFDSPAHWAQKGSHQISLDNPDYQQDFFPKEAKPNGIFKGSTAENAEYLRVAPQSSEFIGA
Chain of EGFR wildtype (WT) (P00533 25-1210): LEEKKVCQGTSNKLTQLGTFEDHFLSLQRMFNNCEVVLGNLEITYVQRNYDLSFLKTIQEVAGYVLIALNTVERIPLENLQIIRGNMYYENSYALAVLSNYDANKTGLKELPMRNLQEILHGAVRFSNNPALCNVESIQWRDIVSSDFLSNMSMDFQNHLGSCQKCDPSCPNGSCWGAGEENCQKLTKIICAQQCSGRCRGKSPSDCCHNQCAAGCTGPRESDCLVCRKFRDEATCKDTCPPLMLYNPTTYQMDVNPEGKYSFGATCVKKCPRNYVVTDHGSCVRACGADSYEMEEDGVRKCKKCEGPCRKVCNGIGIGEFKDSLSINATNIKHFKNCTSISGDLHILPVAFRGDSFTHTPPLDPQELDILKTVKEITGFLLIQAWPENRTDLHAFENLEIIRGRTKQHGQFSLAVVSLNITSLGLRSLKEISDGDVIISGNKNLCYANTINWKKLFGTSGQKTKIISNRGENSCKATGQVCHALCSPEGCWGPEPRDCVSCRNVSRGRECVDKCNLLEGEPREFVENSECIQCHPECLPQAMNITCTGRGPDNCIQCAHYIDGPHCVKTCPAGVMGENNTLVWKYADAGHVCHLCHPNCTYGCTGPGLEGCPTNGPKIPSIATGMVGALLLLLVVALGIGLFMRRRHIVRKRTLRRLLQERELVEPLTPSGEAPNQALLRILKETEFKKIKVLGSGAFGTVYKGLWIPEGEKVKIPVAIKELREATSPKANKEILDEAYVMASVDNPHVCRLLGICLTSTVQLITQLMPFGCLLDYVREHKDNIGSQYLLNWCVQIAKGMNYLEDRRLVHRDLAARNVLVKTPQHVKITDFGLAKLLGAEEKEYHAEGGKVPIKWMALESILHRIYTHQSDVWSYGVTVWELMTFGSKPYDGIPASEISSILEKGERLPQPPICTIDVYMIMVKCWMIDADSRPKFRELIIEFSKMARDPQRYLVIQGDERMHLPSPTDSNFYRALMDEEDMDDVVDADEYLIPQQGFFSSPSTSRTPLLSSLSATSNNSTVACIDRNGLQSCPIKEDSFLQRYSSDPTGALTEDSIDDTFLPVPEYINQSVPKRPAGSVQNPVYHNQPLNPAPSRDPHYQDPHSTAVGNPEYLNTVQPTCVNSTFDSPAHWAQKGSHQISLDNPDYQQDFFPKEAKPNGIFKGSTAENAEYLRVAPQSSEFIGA
Chain of EGFR Del19/T790M/C797S (P00533 with tags, fused parts or gaps DEL746-750/T790M/C797S): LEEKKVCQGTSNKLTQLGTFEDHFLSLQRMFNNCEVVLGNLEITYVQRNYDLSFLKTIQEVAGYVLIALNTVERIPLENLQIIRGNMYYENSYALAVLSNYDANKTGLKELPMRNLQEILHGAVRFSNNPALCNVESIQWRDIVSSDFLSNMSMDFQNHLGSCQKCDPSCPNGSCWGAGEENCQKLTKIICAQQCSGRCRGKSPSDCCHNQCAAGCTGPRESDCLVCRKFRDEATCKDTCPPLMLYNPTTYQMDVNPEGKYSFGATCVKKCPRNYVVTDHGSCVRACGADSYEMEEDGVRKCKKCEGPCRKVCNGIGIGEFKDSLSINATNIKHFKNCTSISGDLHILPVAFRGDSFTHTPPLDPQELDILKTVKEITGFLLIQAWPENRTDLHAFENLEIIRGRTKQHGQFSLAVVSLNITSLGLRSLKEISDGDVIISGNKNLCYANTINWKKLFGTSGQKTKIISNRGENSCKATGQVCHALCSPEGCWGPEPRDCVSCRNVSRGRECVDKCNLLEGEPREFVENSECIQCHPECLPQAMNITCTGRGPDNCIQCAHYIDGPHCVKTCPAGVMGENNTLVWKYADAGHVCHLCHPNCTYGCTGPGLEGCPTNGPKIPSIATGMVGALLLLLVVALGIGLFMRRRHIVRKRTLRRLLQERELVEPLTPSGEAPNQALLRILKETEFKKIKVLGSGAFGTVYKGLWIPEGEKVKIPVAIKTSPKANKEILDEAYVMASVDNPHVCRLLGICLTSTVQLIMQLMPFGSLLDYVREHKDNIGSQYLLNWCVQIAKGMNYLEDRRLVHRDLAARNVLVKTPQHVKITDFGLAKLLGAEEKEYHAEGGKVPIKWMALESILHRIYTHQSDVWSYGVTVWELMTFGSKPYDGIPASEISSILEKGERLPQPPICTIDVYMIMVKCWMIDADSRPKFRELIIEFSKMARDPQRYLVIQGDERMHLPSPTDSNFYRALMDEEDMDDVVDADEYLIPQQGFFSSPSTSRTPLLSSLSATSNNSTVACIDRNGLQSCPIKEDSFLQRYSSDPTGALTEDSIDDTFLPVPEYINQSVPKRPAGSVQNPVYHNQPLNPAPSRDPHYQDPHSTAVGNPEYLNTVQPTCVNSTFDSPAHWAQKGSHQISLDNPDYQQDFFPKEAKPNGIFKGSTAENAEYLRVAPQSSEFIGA
Chain of EGFR L858R/T790M/C797S (P00533 25-1210 T790M/C797S/L858R): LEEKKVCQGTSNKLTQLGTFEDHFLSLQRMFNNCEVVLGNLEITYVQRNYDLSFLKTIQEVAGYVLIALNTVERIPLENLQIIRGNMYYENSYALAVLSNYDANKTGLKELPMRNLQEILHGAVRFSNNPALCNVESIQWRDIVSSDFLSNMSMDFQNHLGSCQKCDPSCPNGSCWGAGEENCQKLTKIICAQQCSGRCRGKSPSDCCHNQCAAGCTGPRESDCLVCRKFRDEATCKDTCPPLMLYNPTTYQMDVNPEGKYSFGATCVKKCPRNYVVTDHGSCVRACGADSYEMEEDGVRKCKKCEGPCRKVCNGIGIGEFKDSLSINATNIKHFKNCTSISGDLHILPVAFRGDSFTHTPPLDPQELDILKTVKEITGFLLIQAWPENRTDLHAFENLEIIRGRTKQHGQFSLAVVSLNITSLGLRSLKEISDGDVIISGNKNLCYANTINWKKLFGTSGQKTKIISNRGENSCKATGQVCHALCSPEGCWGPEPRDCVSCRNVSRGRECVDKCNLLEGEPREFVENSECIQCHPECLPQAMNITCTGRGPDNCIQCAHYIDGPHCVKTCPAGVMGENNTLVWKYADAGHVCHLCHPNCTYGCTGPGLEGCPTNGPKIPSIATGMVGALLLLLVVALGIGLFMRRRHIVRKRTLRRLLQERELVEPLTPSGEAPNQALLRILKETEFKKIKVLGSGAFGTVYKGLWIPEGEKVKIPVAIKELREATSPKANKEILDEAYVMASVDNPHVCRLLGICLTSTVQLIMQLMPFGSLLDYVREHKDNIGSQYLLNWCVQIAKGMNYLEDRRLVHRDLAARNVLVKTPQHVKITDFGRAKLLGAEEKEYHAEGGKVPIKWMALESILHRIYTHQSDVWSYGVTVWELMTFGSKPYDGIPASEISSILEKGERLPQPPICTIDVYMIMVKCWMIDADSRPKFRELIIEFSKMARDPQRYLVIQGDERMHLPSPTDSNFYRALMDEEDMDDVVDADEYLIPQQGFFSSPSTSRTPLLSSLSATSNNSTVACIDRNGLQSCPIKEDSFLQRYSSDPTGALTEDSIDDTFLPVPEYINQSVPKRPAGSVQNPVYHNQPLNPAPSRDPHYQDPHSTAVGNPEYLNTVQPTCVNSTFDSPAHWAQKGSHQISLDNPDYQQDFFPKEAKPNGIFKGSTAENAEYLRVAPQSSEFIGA

Structure (SMILES) | IC50 (EGFR Del19/T790M/C797S; [1]) | IC50 (EGFR L858R/C797S; [2]) | IC50 (EGFR Del19/C797S; [3]) | IC50 (EGFR L858R/T790M/C797S; [4]) | IC50 (EGFR wildtype (WT); IC50 WT (nM), 100 μM ATP) | IC50 (EGFR Del19/T790M/C797S; [5]) | IC50 (EGFR L858R/C797S; [6]) | IC50 (EGFR Del19/C797S; [7]) | IC50 (EGFR L858R/T790M/C797S; [8]) | IC50 (EGFR wildtype (WT); [9])
O=S(=O)(C1CC1)n1cc(-c2nccc(Nc3cc(N[C@H]4CC[C@@H](O)CC4)c(C#Cc4cnn(CCF)c4)cn3)n2)cn1 [Example 42, (1s,4s)-4-((2-((2-(1-(Cyclopropylsulfonyl)-1H-pyrazol-4-yl)pyrimidin-4-yl)amino)-5-((1-(2-fluoroethyl)-1H-pyrazol-4-yl)ethynyl)pyridin-4-yl)amino)cyclohexan-1-ol] | 1.1 nM | 11.5 nM | 3.2 nM | 1.2 nM | > 10000 nM |  |  |  |  | 
Cn1cc(C#Cc2cnc(Nc3ccnc(-c4cnn(S(=O)(=O)C5CC5)c4)n3)cc2N[C@H]2CCC[C@H](O)C2)cn1 [Example 43, (1 S,3S)-3-((2-((2-(1-(Cyclopropylsulfonyl)-1H-pyrazol-4-yl)pyrimidin-4-yl)amino)-5-((1-methyl-1H-pyrazol-4-yl)ethynyl)pyridin-4-yl)amino)cyclohexan-1-ol] | 0.6 nM | 8.9 nM | 1.7 nM | 0.7 nM | > 10000 nM | 0.5 nM | 1.1 nM | 1.4 nM | 0.2 nM | 20.3 nM
O=S(=O)(C1CC1)n1cc(-c2nccc(Nc3cc(N[C@H]4CCC[C@H](O)C4)c(C#Cc4cnn(CCF)c4)cn3)n2)cn1 [Example 44, (1S,3S)-3-((2-((2-(1-(Cyclopropylsulfonyl)-1H-pyrazol-4-yl)pyrimidin-4-yl)amino)-5-((1-(2-fluoroethyl)-1H-pyrazol-4-yl)ethynyl)pyridin-4-yl)amino)cyclohexan-1-ol] | 1.2 nM | 12.7 nM | 2.6 nM | 1.4 nM | 2310 nM |  |  |  |  | 
Cn1cc(C#Cc2cnc(Nc3ccnc(-c4cnn(S(=O)(=O)C5CC5)c4)n3)cc2N[C@@H]2CCC[C@H](O)C2)cn1 [Example 45, (1 S,3R)-3-((2-((2-(1-(Cyclopropylsulfonyl)-1H-pyrazol-4-yl)pyrimidin-4-yl)amino)-5-((1-methyl-1H-pyrazol-4-yl)ethynyl)pyridin-4-yl)amino)cyclohexan-1-ol] | 0.9 nM | 46.2 nM | 7.3 nM | 2.3 nM | > 10000 nM |  |  |  |  | 
O=S(=O)(C1CC1)n1cc(-c2nccc(Nc3cc(N[C@@H]4CCC[C@H](O)C4)c(C#Cc4cnn(CCF)c4)cn3)n2)cn1 [Example 46, (1S,3R)-3-((2-((2-(1-(Cyclopropylsulfonyl)-1H-pyrazol-4-yl)pyrimidin-4-yl)amino)-5-((1-(2-fluoroethyl)-1H-pyrazol-4-yl)ethynyl)pyridin-4-yl)amino)cyclohexan-1-ol] | 1.3 nM | 59.3 nM | 8.6 nM | 2.9 nM | > 10000 nM |  |  |  |  | 
CC1(CO)CCN(c2cc(Nc3ccnc(-c4cnn(S(=O)(=O)C5CC5)c4)n3)ncc2C#Cc2cnn(C3CC3)c2)CC1 [Example 47, (1-(5-((1-Cyclopropyl-1H-pyrazol-4-yl)ethynyl)-2-((2-(1-(cyclopropylsulfonyl)-1H-pyrazol-4-yl)pyrimidin-4-yl)amino)pyridin-4-yl)-4-methylpiperidin-4-yl)methanol] | 2.8 nM | 7.8 nM | 1.6 nM | 3.5 nM | 1740 nM | 2.1 nM | 3.3 nM | 2.6 nM | 1.4 nM | 19.6 nM
CC1(CO)CCN(c2cc(Nc3ccnc(-c4cnn(S(=O)(=O)C5CC5)c4)n3)ncc2C#Cc2cnn(CC3CC3)c2)CC1 [Example 48, (1-(5-((1-(Cyclopropylmethyl)-1H-pyrazol-4-yl)ethynyl)-2-((2-(1-(cyclopropylsulfonyl)-1H-pyrazol-4-yl)pyrimidin-4-yl)amino)pyridin-4-yl)-4-methylpiperidin-4-yl)methanol] | 5.3 nM | 15.9 nM | 2.2 nM | 9.1 nM | 2910 nM | 4 nM | 7.2 nM | 4.3 nM | 2.3 nM | 38.2 nM
CC1(CO)CCN(c2cc(Nc3ccnc(-c4cnn(S(=O)(=O)C5CC5)c4)n3)ncc2C#Cc2cnn(CC(F)F)c2)CC1 [Example 49, (1-(2-((2-(1-(Cyclopropylsulfonyl)-1H-pyrazol-4-yl)pyrimidin-4-yl)amino)-5-((1-(2,2-difluoroethyl)-1H-pyrazol-4-yl)ethynyl)pyridin-4-yl)-4-methylpiperidin-4-yl)methanol] | 1.8 nM | 7.2 nM | 0.9 nM | 2.9 nM | 1260 nM | 1.8 nM | 2.8 nM | 2.1 nM | 1.1 nM | 14.3 nM
CN(C)Cc1ccc(CNc2cc(Nc3ccnc(-c4cnn(S(=O)(=O)C5CC5)c4)n3)ncc2C#Cc2cnn(C)c2)cc1 [Example 50, N^2-(2-(1-(Cyclopropylsulfonyl)-1H-pyrazol-4-yl)pyrimidin-4-yl)-N^4-(4-((dimethylamino)methyl)benzyl)-5-((1-methyl-1H-pyrazol-4-yl)ethynyl)pyridine-2,4-diamine] |  |  |  |  |  | 0.9 nM | 130 nM | 128 nM | 4.5 nM | 362 nM
CN(C)Cc1ccc(CNc2cc(Nc3ccnc(-c4cnn(S(=O)(=O)C5CC5)c4)n3)ncc2C#Cc2cnn(CCF)c2)cc1 [Example 51, N^2-(2-(1-(Cyclopropylsulfonyl)-1H-pyrazol-4-yl)pyrimidin-4-yl)-N^4-(4-((dimethylamino)methyl)benzyl)-5-((1-(2-fluoroethyl)-1H-pyrazol-4-yl)ethynyl)pyridine-2,4-diamine] |  |  |  |  |  | 0.9 nM | 49.1 nM | 68.6 nM | 3.2 nM | 262 nM
CN(C)Cc1ccc(CNc2cc(Nc3ccnc(-c4cnn(S(=O)(=O)C5CC5)c4)n3)ncc2C#Cc2cnn(CC(F)F)c2)cc1 [Example 52, N^2-(2-(1-(Cyclopropylsulfonyl)-1H-pyrazol-4-yl)pyrimidin-4-yl)-5-((1-(2,2-difluoroethyl)-1H-pyrazol-4-yl)ethynyl)-N^4-(4-((dimethylamino)methyl)benzyl)pyridine-2,4-diamine] |  |  |  |  |  | 1.4 nM | 65.6 nM | 76.9 nM | 3.8 nM | 304 nM
CN(C)C[C@H]1CC[C@H](CNc2cc(Nc3ccnc(-c4cnn(S(=O)(=O)C5CC5)c4)n3)ncc2C#Cc2cnn(C)c2)CC1 [Example 53, N^2-(2-(1-(Cyclopropylsulfonyl)-1H-pyrazol-4-yl)pyrimidin-4-yl)-N^4-(((1r,4r)-4-((dimethylamino)methyl)cyclohexyl)methyl)-5-((1-methyl-1H-pyrazol-4-yl)ethynyl)pyridine-2,4-diamine] |  |  |  |  |  | 0.4 nM | 141 nM | 5.9 nM | 0.3 nM | 142 nM
CN(C)C[C@H]1CC[C@H](COc2cc(Nc3ccnc(-c4cnn(S(=O)(=O)C5CC5)c4)n3)ncc2C#Cc2cnn(C)c2)CC1 [Example 58, 2-(1-(Cyclopropylsulfonyl)-1H-pyrazol-4-yl)-N-(4-(((1r,4r)-4-((dimethylamino)methyl)cyclohexyl)methoxy)-5-((1-methyl-1H-pyrazol-4-yl)ethynyl)pyridin-2-yl)pyrimidin-4-amine] | 1.1 nM | 24.7 nM | 2.8 nM | 0.5 nM | > 10000 nM | 0.3 nM | 4.7 nM | 0.6 nM | 0.1 nM | 15.1 nM
CC(C)n1cc(C#Cc2cnc(Nc3ccnc(-c4cnn(S(=O)(=O)C5CC5)c4)n3)cc2OC[C@H]2CC[C@H](CN(C)C)CC2)cn1 [Example 59, 2-(1-(Cyclopropylsulfonyl)-1H-pyrazol-4-yl)-N-(4-(((1r,4r)-4-((dimethylamino)methyl)cyclohexyl)methoxy)-5-((1-isopropyl-1H-pyrazol-4-yl)ethynyl)pyridin-2-yl)pyrimidin-4-amine] | 1.4 nM |  | 2.6 nM | 0.7 nM | > 10000 nM | 0.6 nM | 1.7 nM | 1.1 nM | 0.1 nM | 19.2 nM
CN(C)C[C@H]1CC[C@H](COc2cc(Nc3ccnc(-c4cnn(S(=O)(=O)C5CC5)c4)n3)ncc2C#Cc2cnn(C3CC3)c2)CC1 [Example 60, N-(5-((1-Cyclopropyl-1H-pyrazol-4-yl)ethynyl)-4-(((1r,4r)-4-((dimethylamino)methyl)cyclohexyl)methoxy)pyridin-2-yl)-2-(1-(cyclopropylsulfonyl)-1H-pyrazol-4-yl)pyrimidin-4-amine] |  |  |  |  |  | 0.5 nM | 2.6 nM | 0.4 nM | 0.1 nM | 8.8 nM
CN(C)C[C@H]1CC[C@H](COc2cc(Nc3ccnc(-c4cnn(S(=O)(=O)C5CC5)c4)n3)ncc2C#Cc2cnn(CCF)c2)CC1 [Example 61, 2-(1-(Cyclopropylsulfonyl)-1H-pyrazol-4-yl)-N-(4-(((1r,4r)-4-((dimethylamino)methyl)cyclohexyl)methoxy)-5-((1-(2-fluoroethyl)-1H-pyrazol-4-yl)ethynyl)pyridin-2-yl)pyrimidin-4-amine] |  |  |  |  |  | 0.5 nM | 3.1 nM | 0.5 nM | 0.1 nM | 4.2 nM
